# Results published in ChEMBL document CHEMBL4359904, “Structural tuning of acridones for developing anticancer agents targeting dihydrofolate reductase” (Bioorg Med Chem Lett, 2019).
# The source made the active and inactive calls. The rule behind the calls is not given here.
# Key:
# HL-60(TB) = assay: Growth inhibition of human HL-60(TB) cells incubated for 48 hrs by sulforhodamine B assay; type: functional; settings: HL-60, 48 h
# K562 = assay: Growth inhibition of human K562 cells incubated for 48 hrs by sulforhodamine B assay; type: functional; settings: K562, 48 h
# MOLT-4 [1] = assay: Growth inhibition of human MOLT4 cells incubated for 48 hrs by sulforhodamine B assay; type: functional; settings: MOLT-4, 48 h
# RPMI-8226 = assay: Growth inhibition of human RPMI8226 cells incubated for 48 hrs by sulforhodamine B assay; type: functional; settings: RPMI-8226, 48 h
# SR = assay: Growth inhibition of human SR cells incubated for 48 hrs by sulforhodamine B assay; type: functional
# A549 = assay: Growth inhibition of human A549/ATCC cells incubated for 48 hrs by sulforhodamine B assay; type: functional; settings: A549, 48 h
# HOP-62 = assay: Growth inhibition of human HOP62 cells incubated for 48 hrs by sulforhodamine B assay; type: functional; settings: HOP-62, 48 h
# NCI-H226 = assay: Growth inhibition of human NCI-H226 cells incubated for 48 hrs by sulforhodamine B assay; type: functional; settings: NCI-H226, 48 h
# NCI-H23 = assay: Growth inhibition of human NCI-H23 cells incubated for 48 hrs by sulforhodamine B assay; type: functional; settings: NCI-H23, 48 h
# NCI-H522 = assay: Growth inhibition of human NCI-H522 cells incubated for 48 hrs by sulforhodamine B assay; type: functional; settings: NCI-H522, 48 h
# COLO 205 = assay: Growth inhibition of human COLO205 cells incubated for 48 hrs by sulforhodamine B assay; type: functional; settings: COLO 205, 48 h
# HCT-15 = assay: Growth inhibition of human HCT15 cells incubated for 48 hrs by sulforhodamine B assay; type: functional; settings: HCT-15, 48 h
# HT-29 = assay: Growth inhibition of human HT-29 cells incubated for 48 hrs by sulforhodamine B assay; type: functional; settings: HT-29, 48 h
# SW-620 = assay: Growth inhibition of human SW620 cells incubated for 48 hrs by sulforhodamine B assay; type: functional; settings: SW-620, 48 h
# SF-295 = assay: Growth inhibition of human SF295 cells incubated for 48 hrs by sulforhodamine B assay; type: functional; settings: SF-295, 48 h
# MDA-MB-435 = assay: Growth inhibition of human MDA-MB-435 cells incubated for 48 hrs by sulforhodamine B assay; type: functional; settings: MDA-MB-435, 48 h
# CAKI-1 = assay: Growth inhibition of human Caki1 cells incubated for 48 hrs by sulforhodamine B assay; type: functional; settings: CAKI-1, 48 h
# TK-10 = assay: Growth inhibition of human TK10 cells incubated for 48 hrs by sulforhodamine B assay; type: functional; settings: TK-10, 48 h
# DU-145 = assay: Growth inhibition of human DU145 cells incubated for 48 hrs by sulforhodamine B assay; type: functional; settings: DU-145, 48 h
# MDA-MB-231 = assay: Growth inhibition of human MDA-MB-231/ATCC cells incubated for 48 hrs by sulforhodamine B assay; type: functional; settings: MDA-MB-231, 48 h
# Hs-578T = assay: Growth inhibition of human Hs578T cells incubated for 48 hrs by sulforhodamine B assay; type: functional
# MOLT-4 [2] = assay: Growth inhibition of human MOLT4 cells at 10^-5 M incubated for 48 hrs by sulforhodamine B assay relative to control; type: functional; settings: MOLT-4, 48 h, read-out: GI
# NCI-H460 = assay: Growth inhibition of human NCI-H460 cells at 10^-5 M cells incubated for 48 hrs by sulforhodamine B assay relative to control; type: functional
# UO-31 = assay: Growth inhibition of human UO31 cells at 10^-5 M incubated for 48 hrs by sulforhodamine B assay relative to control; type: functional; settings: UO-31, 48 h, read-out: GI
# MCF7 = assay: Growth inhibition of human MCF7 cells at 10^-5 M incubated for 48 hrs by sulforhodamine B assay relative to control; type: functional; settings: MCF7, 48 h, read-out: GI
# MDA-MB-468 = assay: Growth inhibition of human MDA-MB-468 cells at 10^-5 M incubated for 48 hrs by sulforhodamine B assay relative to control; type: functional; settings: MDA-MB-468, 48 h, read-out: GI
# [3] = test system: Panel NCI-60 (60 carcinoma cell lines); assay: Growth inhibition of human NCI60 cells at incubated for 48 hrs by sulforhodamine B assay; type: functional
# C6 [4] = assay: Cell cycle arrest in rat C6 cells assessed as increase in cell population at sub G0 phase measured after 24 hrs by propidium iodide staining based flow cytometry analysis; type: functional
# C6 [5] = assay: Cell cycle arrest in rat C6 cells assessed as decrease in cell population at G2/M phase measured after 24 hrs by propidium iodide staining based flow cytometry analysis; type: functional
# [6] = target: T1, Dihydrofolate reductase (Homo sapiens) (UniProt P00374); assay: Inhibition of human dihydrofolate reductase assessed as association constant by UV-Vis spectra based Benesi Hilebrand equation analysis
# T1 sequence (whole entry): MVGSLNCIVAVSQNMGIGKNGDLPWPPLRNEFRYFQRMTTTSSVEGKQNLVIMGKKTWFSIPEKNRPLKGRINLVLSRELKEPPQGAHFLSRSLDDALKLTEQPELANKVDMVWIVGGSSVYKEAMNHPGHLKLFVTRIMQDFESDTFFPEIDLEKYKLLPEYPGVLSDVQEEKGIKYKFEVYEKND
# [7] = read-out: pLC50 (the source's name) (converted)
# [8] = read-out: LC50 (the source's name)
smiles,measurement,setting,value
O=c1c2ccccc2n(CC2CO2)c2ccccc12 (racemic),GI50,HL-60(TB),204 nM
same,TGI,HL-60(TB); read-out: pTGI (converted),490 nM
same,GI50,K562,214 nM
same,CC50,K562; [7],> 100000 nM
same,TGI,K562; read-out: pTGI,> 100000 nM
same,GI50,MOLT-4 [1]; read-out: GI50,40 nM
same,CC50,MOLT-4 [1]; [8],> 100000 nM
same,GI50,MOLT-4 [1]; read-out: pGI50 (converted),41.7 nM
same,CC50,MOLT-4 [1]; [7],> 100000 nM
same,TGI,MOLT-4 [1]; read-out: pTGI (converted),316 nM
same,GI50,RPMI-8226,302 nM
same,CC50,RPMI-8226; [7],> 100000 nM
same,TGI,RPMI-8226; read-out: pTGI (converted),1100 nM
same,GI50,SR; read-out: GI50,50 nM
same,CC50,SR; [8],> 100000 nM
same,GI50,SR; read-out: pGI50 (converted),50.1 nM
same,CC50,SR; [7],> 100000 nM
same,TGI,SR; read-out: pTGI (converted),1860 nM
same,GI50,A549,479 nM
same,CC50,A549; [7],> 100000 nM
same,TGI,A549; read-out: pTGI (converted),3800 nM
same,GI50,HOP-62,380 nM
same,CC50,HOP-62; [7],> 100000 nM
same,TGI,HOP-62; read-out: pTGI (converted),2750 nM
same,GI50,NCI-H226,302 nM
same,CC50,NCI-H226; [7],> 100000 nM
same,TGI,NCI-H226; read-out: pTGI (converted),1480 nM
same,GI50,NCI-H23,295 nM
same,CC50,NCI-H23; [7],57500 nM
same,TGI,NCI-H23; read-out: pTGI (converted),1290 nM
same,GI50,NCI-H522,372 nM
same,CC50,NCI-H522; [7],19500 nM
same,TGI,NCI-H522; read-out: pTGI (converted),1320 nM
same,GI50,COLO 205,245 nM
same,CC50,COLO 205; [7],64600 nM
same,TGI,COLO 205; read-out: pTGI (converted),1410 nM
same,GI50,HCT-15,295 nM
same,CC50,HCT-15; [7],> 100000 nM
same,TGI,HCT-15; read-out: pTGI (converted),4570 nM
same,GI50,HT-29,316 nM
same,CC50,HT-29; [7],23400 nM
same,TGI,HT-29; read-out: pTGI (converted),871 nM
same,GI50,SW-620; read-out: GI50,50 nM
same,CC50,SW-620; [8],> 50 nM
same,GI50,SW-620; read-out: pGI50 (converted),56.2 nM
same,CC50,SW-620; [7],> 100000 nM
same,TGI,SW-620; read-out: pTGI (converted),1200 nM
same,GI50,SF-295,603 nM
same,CC50,SF-295; [7],> 100000 nM
same,TGI,SF-295; read-out: pTGI (converted),4270 nM
same,GI50,MDA-MB-435,282 nM
same,CC50,MDA-MB-435; [7],4680 nM
same,TGI,MDA-MB-435; read-out: pTGI (converted),1230 nM
same,GI50,CAKI-1,174 nM
same,CC50,CAKI-1; [7],> 100000 nM
same,TGI,CAKI-1; read-out: pTGI (converted),692 nM
same,GI50,TK-10,479 nM
same,CC50,TK-10; [7],> 100000 nM
same,TGI,TK-10; read-out: pTGI (converted),3090 nM
same,GI50,DU-145,347 nM
same,CC50,DU-145; [7],> 100000 nM
same,TGI,DU-145; read-out: pTGI (converted),1480 nM
same,GI50,MDA-MB-231,631 nM
same,CC50,MDA-MB-231; [7],> 100000 nM
same,TGI,MDA-MB-231; read-out: pTGI (converted),3310 nM
same,GI50,Hs-578T,575 nM
same,CC50,Hs-578T; [7],> 100000 nM
same,TGI,Hs-578T; read-out: pTGI (converted),3890 nM
same,inhibition of growth at 10 µM,MOLT-4 [2],100%
same,growth inhibition (GI),NCI-H460,100%
same,inhibition of growth at 10 µM,UO-31,100%
same,inhibition of growth at 10 µM,MCF7,100%
same,inhibition of growth at 10 µM,MDA-MB-468,100%
same,GI50,[3],1600 nM
same,TGI,[3],5600 nM
same,CC50,[3]; [8],44400 nM
same,Activity,C6 [4],Active
same,inhibition,C6 [5],Active
same,Ka,[6],1.4 ×10⁴ /M
